In ChEMBL document CHEMBL1122514, “Studies on synthesis and anticancer activity of selected N-(2-fluoroethyl)-N-nitrosoureas” (1984):
Values joined by “and” are separate entries in the source; they are usually repeats but may differ in a detail not shown here. Identical values can stand only once.

Key:
Mus musculus [1] = assay: Median survival time including day-60 survivors (MST), after post implantation at the optimal dose of 6.25 mg/kg; d=Not attained; assay type: functional, organism-based; design: dose 6.25 mg/kg
Mus musculus [2] = assay: Number of day-60 survivors at the optimal dose of 6.25 mg/kg; 9/10; assay type: functional
Mus musculus [3] = assay: Optimal percentage of increased life span [(100 x MST treated mice / MST control mice) -100] at the optimal dose of 6.25 mg/kg; d=Not Attained; assay type: functional, organism-based; design: dose 6.25 mg/kg
Mus musculus [4] = assay: Compound is evaluated for antitumor activity against intraperitoneally implanted B16 melanoma cells in mice median survival time including day-60 survivors (MST); f=Not attained; assay type: functional, organism-based
Mus musculus [5] = species on record: Mus musculus; assay: Number of day-60 survivors; 4/10; assay type: functional
Mus musculus [6] = assay: Compound is evaluated for antitumor activity against intraperitoneally implanted B16 melanoma cells in mice median survival time including day-60 survivors (MST); assay type: functional
Mus musculus [7] = assay: Number of day-60 survivors at the optimal dose of 10 mg/kg; 7/10; assay type: functional
Mus musculus [8] = assay: Optimal percentage of increased life span [(100 x MST treated mice / MST control mice) -100] at the optimal dose of 10 mg/kg; d=Not Attained; assay type: functional, organism-based; design: dose 10 mg/kg
Mus musculus [9] = species on record: Mus musculus; assay: Number of day-60 survivors; 5/10; assay type: functional
Mus musculus [10] = species on record: Mus musculus; assay: optimal percentage of increased life span [(100 x MST treated mice / MST control mice) -100]; assay type: functional
Mus musculus [11] = assay: Median survival time including day-60 survivors (MST), after post implantation at the optimal dose of 10 mg/kg; d=Not attained; assay type: functional, organism-based; design: dose 10 mg/kg
Mus musculus [12] = assay: Compound is evaluated for maximally tolerated dose (MTD) against intraperitoneally implanted B16 melanoma cells in mice; assay type: functional
Mus musculus [13] = species on record: Mus musculus; assay: Optimal percentage of increased life span [(100 x MST treated mice / MST control mice) -100]; f=Not Attained; assay type: functional, organism-based
Mus musculus [14] = species on record: Mus musculus; assay: Number of day-60 survivors; 3/10; assay type: functional
Mus musculus [15] = species on record: Mus musculus; assay: (§1) Optimal percentage of increased life span [(100 x MST treated mice / MST control mice) -100]; assay type: functional
Mus musculus [16] = species on record: Mus musculus; assay: Number of day-60 survivors; 2/10; assay type: functional
Mus musculus [17] = species on record: Mus musculus; assay: as §1; assay type: functional; remark: listed apart in the source
Mus musculus [18] = assay: Median survival time including day-60 survivors (MST), after post implantation at the optimal dose of 5 mg/kg; assay type: functional
Mus musculus [19] = assay: Number of day-60 survivors at the optimal dose of 5 mg/kg; 3/10; assay type: functional
Mus musculus [20] = assay: Optimal percentage of increased life span [(100 x MST treated mice / MST control mice) -100] at the optimal dose of 5 mg/kg; assay type: functional
Mus musculus [21] = assay: Number of day-60 survivors at the optimal dose of 8 mg/kg; 8/10; assay type: functional
Mus musculus [22] = assay: Optimal percentage of increased life span [(100 x MST treated mice / MST control mice) -100] at the optimal dose of 8 mg/kg; d=Not Attained; assay type: functional, organism-based; design: dose 8 mg/kg
Mus musculus [23] = assay: median survival time including day-60 survivors (MST), after post implantation at the optimal dose of 8 mg/kg; d=Not Attained; assay type: functional, organism-based; design: dose 8 mg/kg
Mus musculus [24] = assay: Optimal percentage of increased life span [(100 x MST treated mice / MST control mice) -100] at the optimal dose of 20 mg/kg; d=Not Attained; assay type: functional, organism-based; design: dose 20 mg/kg
Mus musculus [25] = assay: Median survival time including day-60 survivors (MST), after post implantation at the optimal dose of 20 mg/kg; d=Not attained; assay type: functional, organism-based; design: dose 20 mg/kg
Mus musculus [26] = species on record: Mus musculus; assay: Number of day-60 survivors; 0/10; assay type: functional
Mus musculus [27] = assay: Number of day-60 survivors at the optimal dose of 20 mg/kg; 6/10; assay type: functional
Mus musculus [28] = assay: median survival time including day-60 survivors (MST), after post implantation at the optimal dose of 5 mg/kg; assay type: functional
Mus musculus [29] = assay: median survival time including day-60 survivors (MST), after post implantation at the optimal dose of 32 mg/kg; assay type: functional
Mus musculus [30] = assay: Optimal percentage of increased life span [(100 x MST treated mice / MST control mice) -100] at the optimal dose of 32 mg/kg; assay type: functional
Mus musculus [31] = assay: Number of day-60 survivors at the optimal dose of 32 mg/kg; 1/10; assay type: functional
Mus musculus [32] = assay: median survival time including day-60 survivors (MST), after post implantation at the optimal dose of 20 mg/kg; assay type: functional
Mus musculus [33] = species on record: Mus musculus; assay: Number of day-60 survivors; 1/10; assay type: functional
Mus musculus [34] = assay: Optimal percentage of increased life span [(100 x MST treated mice / MST control mice) -100] at the optimal dose of 20 mg/kg; assay type: functional
Mus musculus [35] = assay: Number of day-60 survivors at the optimal dose of 20 mg/kg; 3/10; assay type: functional
Mus musculus [36] = assay: Number of day-60 survivors at the optimal dose of 20 mg/kg; 9/10; assay type: functional

For `O=NN(CCCl)C(=O)NCCO` [ELMUSTINE], the MST (Mus musculus [1]) was “Not attained”, the Survivors (Mus musculus [2]) was 9 and the ILS (Mus musculus [3]) was “Not attained”.

For `O=NN(CCF)C(=O)NC1C(O)CCCC1O` (centres undefined), the MST (Mus musculus [4]) was “Not attained”, the Survivors (Mus musculus [5]) was 4 and the MST (Mus musculus [6]) was 57 days. The Survivors (Mus musculus [7]) was 7, the ILS (Mus musculus [8]) was “Not attained” and the Survivors (Mus musculus [9]) was 5. For the same compound, the ILS (Mus musculus [10]) was 163%, the MST (Mus musculus [11]) was “Not attained” and the MTD (Mus musculus [12]) was 60 mg/kg. The ILS (Mus musculus [13]) was “Not attained”.

With `O=NN(CCF)C(=O)NC1C(O)C(O)OC(CO)C1O` (centres undefined) the Survivors (Mus musculus [14]) was 3, the MST (Mus musculus [6]) was 50 days and 36 days and the ILS (Mus musculus [15]) was 131%. The Survivors (Mus musculus [16]) was 2, the ILS (Mus musculus [17]) was 110% and the MTD (Mus musculus [12]) was 60 mg/kg.

For `O=NN(CCF)C(=O)NCCO`, the Survivors (Mus musculus [14]) was 3, the MST (Mus musculus [18]) was 45.8 days and the MST (Mus musculus [6]) was 50 days and 42.8 days. For the same compound, the ILS (Mus musculus [17]) was 150%, the Survivors (Mus musculus [19]) was 3 and the ILS at 5 mg/kg (Mus musculus [20]) was 138%. For the same compound, the ILS (Mus musculus [10]) was 131% and the MTD (Mus musculus [12]) was 60 mg/kg.

For `O=NN(CCCl)C(=O)NC1CCC(=O)NC1=O` (centres undefined), the Survivors (Mus musculus [21]) was 8, the ILS (Mus musculus [22]) was “Not attained” and the MST (Mus musculus [23]) was “Not attained”.

`O=NN(CCF)C(=O)NC1CCCCC1O` (centres undefined) was tested, and the Survivors (Mus musculus [14]) was 3, the ILS (Mus musculus [24]) was “Not attained” and the MST (Mus musculus [25]) was “Not attained”. For the same compound, the MST (Mus musculus [6]) was 48 days and 35.8 days, the Survivors (Mus musculus [26]) was 0 and the ILS (Mus musculus [17]) was 122% and 109%. For the same compound, the MTD (Mus musculus [12]) was 60 mg/kg and the Survivors (Mus musculus [27]) was 6.

Work on `O=NN(CCCl)C(=O)NC1C(O)CCCC1O` (centres undefined) yielded a Survivors (Mus musculus [19]) of 3, an ILS at 5 mg/kg (Mus musculus [20]) of 73% and an MST (Mus musculus [28]) of 33.3 days.

`O=NN(CCCl)C(=O)NC1CCCCC1` [LOMUSTINE] gave an MST (Mus musculus [29]) of 32 days, an ILS at 32 mg/kg (Mus musculus [30]) of 66% and a Survivors (Mus musculus [31]) of 1.

For `O=NN(CCF)C(=O)NC1CCCCC1`, the MST (Mus musculus [32]) was 44 days, the MST (Mus musculus [6]) was 37 days and the Survivors (Mus musculus [33]) was 1. It also gave an ILS (Mus musculus [17]) of 71%, an ILS at 20 mg/kg (Mus musculus [34]) of 129% and a Survivors (Mus musculus [35]) of 3. For the same compound, the MTD (Mus musculus [12]) was 60 mg/kg.

`O=NN(CCF)C(=O)NC1CCC(=O)NC1=O` (centres undefined) was tested, and the Survivors (Mus musculus [14]) was 3, the ILS (Mus musculus [24]) was “Not attained” and the MST (Mus musculus [25]) was “Not attained”. For the same compound, the MST (Mus musculus [6]) was 45.3 days and 40.3 days, the Survivors (Mus musculus [33]) was 1 and the ILS (Mus musculus [17]) was 109% and 133%. It also gave an MTD (Mus musculus [12]) of 60 mg/kg and a Survivors (Mus musculus [36]) of 9.
